From patent US7803399B2, “Delivery system for nucleic acids” (The Scripps Research Institute, priority 2001, dated 2010)
Like-named read-outs stand apart in the source and are kept apart here.

Tested on: αvβ3 positive M21 Melanoma cells
Assay: Cell adhesion inhibition assay on vitronectin coated plates
Format: cell-based
Conditions: Homo sapiens

IC50 (FIG. 9, M21 cells on vitronectin, read-out: IC50 cell adhesion (FIG. 9), antagonist alone): 500 µM
IC50 (M21 cells on vitronectin coated plates, monomeric ligand, read-out: IC50 for inhibition of cell adhesion, free ligand): 64 µM
SMILES: NCCS(=O)(=O)N[C@@H](CNC(=O)c1ccc(OCCNC2=NCCCN2)cc1)C(=O)O [Liposome 10, 4-[2-(3,4,5,6-Tetrahydropyrimidin-2-ylamino)ethyloxy]benzoyl-2-(S)-aminoethylsulfonamido-β-alanine]
